Experimental data reported in PubChem BioAssay (NCI).
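In this assay, cells in 96-well plates receive the compound at five concentrations for 48 hours. Endpoints are linearly interpolated between the surrounding concentrations. The concentration for 50% growth inhibition is given as GI50. TGI marks complete inhibition of growth.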

Test system: 786-0 renal
Experiment: DTP human tumour cell line panel, 48 h

| Structure (SMILES) | GI50 [µM] | TGI [µM] |
| --- | --- | --- |
| Cc1ncc(CCCN(C)C)cc1Nc1ncc2c(n1)-c1ccc(C(F)(F)F)cc1NC(=S)C2 | 0.0825 | 21.6 |
| O=C(CCC1OCCO1)Nc1cc(NCc2ccccc2)ccc1OCc1ccccc1 |  | > 100 |
| ClCc1cccc(Cn2cnc3nc(Cl)nc(Cl)c32)c1 | 0.697 | 1.76 |

Test system: A498 renal
Experiment: DTP human tumour cell line panel, 48 h

| Structure (SMILES) | GI50 [µM] | TGI [µM] |
| --- | --- | --- |
| Cc1ncc(CCCN(C)C)cc1Nc1ncc2c(n1)-c1ccc(C(F)(F)F)cc1NC(=S)C2 | 0.0219 | 0.0769 |
| COc1ccc(-c2nn(-c3ccc(NC(=O)Nc4cc(C(F)(F)F)cc(C(F)(F)F)c4)cc3)cc2-c2ccncc2)cc1Cl | 1.31 | 5.32 |
| O=C(CCC1OCCO1)Nc1cc(NCc2ccccc2)ccc1OCc1ccccc1 |  | > 100 |
| ClCc1cccc(Cn2cnc3nc(Cl)nc(Cl)c32)c1 | 1.52 | 2.9 |

Test system: A549 NSCLC
Experiment: DTP human tumour cell line panel, 48 h

| Structure (SMILES) | GI50 [µM] | TGI [µM] |
| --- | --- | --- |
| Cc1ncc(CCCN(C)C)cc1Nc1ncc2c(n1)-c1ccc(C(F)(F)F)cc1NC(=S)C2 | 0.0104 | 11.6 |
| COc1ccc(-c2nn(-c3ccc(NC(=O)Nc4cc(C(F)(F)F)cc(C(F)(F)F)c4)cc3)cc2-c2ccncc2)cc1Cl | 2.84 | > 100 |
| O=C(CCC1OCCO1)Nc1cc(NCc2ccccc2)ccc1OCc1ccccc1 |  | > 100 |
| ClCc1cccc(Cn2cnc3nc(Cl)nc(Cl)c32)c1 | 6.46 | 19.8 |

Test system: ACHN renal
Experiment: DTP human tumour cell line panel, 48 h

| Structure (SMILES) | GI50 [µM] | TGI [µM] |
| --- | --- | --- |
| Cc1cc(C(C)(C)CC(C)(C)C)ccc1OCCOCC[N+](C)(C)Cc1ccccc1 | 3.19 | 11.3 |
| Cc1ncc(CCCN(C)C)cc1Nc1ncc2c(n1)-c1ccc(C(F)(F)F)cc1NC(=S)C2 | 0.0892 | > 53.6 |
| COc1ccc(-c2nn(-c3ccc(NC(=O)Nc4cc(C(F)(F)F)cc(C(F)(F)F)c4)cc3)cc2-c2ccncc2)cc1Cl | 2.75 | 58.5 |
| O=C(CCC1OCCO1)Nc1cc(NCc2ccccc2)ccc1OCc1ccccc1 |  | > 100 |
| ClCc1cccc(Cn2cnc3nc(Cl)nc(Cl)c32)c1 | 0.396 | 0.837 |

Test system: BT-549 breast
Experiment: DTP human tumour cell line panel, 48 h

| Structure (SMILES) | GI50 [µM] | TGI [µM] |
| --- | --- | --- |
| Cc1ncc(CCCN(C)C)cc1Nc1ncc2c(n1)-c1ccc(C(F)(F)F)cc1NC(=S)C2 | 0.768 | 21.8 |
| O=C(CCC1OCCO1)Nc1cc(NCc2ccccc2)ccc1OCc1ccccc1 |  | > 100 |
| ClCc1cccc(Cn2cnc3nc(Cl)nc(Cl)c32)c1 | 0.487 | 1.75 |

Test system: CAKI-1 renal
Experiment: DTP human tumour cell line panel, 48 h

| Structure (SMILES) | GI50 [µM] | TGI [µM] |
| --- | --- | --- |
| Cc1cc(C(C)(C)CC(C)(C)C)ccc1OCCOCC[N+](C)(C)Cc1ccccc1 | 10.4 | 39 |
| Cc1ncc(CCCN(C)C)cc1Nc1ncc2c(n1)-c1ccc(C(F)(F)F)cc1NC(=S)C2 | 0.0779 | 5.54 |
| COc1ccc(-c2nn(-c3ccc(NC(=O)Nc4cc(C(F)(F)F)cc(C(F)(F)F)c4)cc3)cc2-c2ccncc2)cc1Cl | 2.51 | > 100 |
| O=C(CCC1OCCO1)Nc1cc(NCc2ccccc2)ccc1OCc1ccccc1 |  | 71.3 |
| ClCc1cccc(Cn2cnc3nc(Cl)nc(Cl)c32)c1 | 1.89 | 3.4 |

Test system: CCRF-CEM leukemia
Experiment: DTP human tumour cell line panel, 48 h

| Structure (SMILES) | GI50 [µM] | TGI [µM] |
| --- | --- | --- |
| Cc1ncc(CCCN(C)C)cc1Nc1ncc2c(n1)-c1ccc(C(F)(F)F)cc1NC(=S)C2 | < 0.0134 | 10.4 |
| COc1ccc(-c2nn(-c3ccc(NC(=O)Nc4cc(C(F)(F)F)cc(C(F)(F)F)c4)cc3)cc2-c2ccncc2)cc1Cl | 2.28 | > 100 |
| O=C(CCC1OCCO1)Nc1cc(NCc2ccccc2)ccc1OCc1ccccc1 |  | 45.7 |
| ClCc1cccc(Cn2cnc3nc(Cl)nc(Cl)c32)c1 | 0.31 | 0.973 |

Test system: COLO 205 colon
Experiment: DTP human tumour cell line panel, 48 h

| Structure (SMILES) | GI50 [µM] | TGI [µM] |
| --- | --- | --- |
| Cc1cc(C(C)(C)CC(C)(C)C)ccc1OCCOCC[N+](C)(C)Cc1ccccc1 | 1.25 | 2.64 |
| Cc1ncc(CCCN(C)C)cc1Nc1ncc2c(n1)-c1ccc(C(F)(F)F)cc1NC(=S)C2 | < 0.0111 | < 0.0198 |
| COc1ccc(-c2nn(-c3ccc(NC(=O)Nc4cc(C(F)(F)F)cc(C(F)(F)F)c4)cc3)cc2-c2ccncc2)cc1Cl | 2.06 | 4.17 |
| O=C(CCC1OCCO1)Nc1cc(NCc2ccccc2)ccc1OCc1ccccc1 |  | 52.1 |
| ClCc1cccc(Cn2cnc3nc(Cl)nc(Cl)c32)c1 | 1.69 | 4.22 |

Test system: DU-145 prostate
Experiment: DTP human tumour cell line panel, 48 h

| Structure (SMILES) | GI50 [µM] | TGI [µM] |
| --- | --- | --- |
| Cc1cc(C(C)(C)CC(C)(C)C)ccc1OCCOCC[N+](C)(C)Cc1ccccc1 | 1.66 | 3.13 |
| COc1ccc(-c2nn(-c3ccc(NC(=O)Nc4cc(C(F)(F)F)cc(C(F)(F)F)c4)cc3)cc2-c2ccncc2)cc1Cl | 4.25 | > 100 |
| O=C(CCC1OCCO1)Nc1cc(NCc2ccccc2)ccc1OCc1ccccc1 |  | > 100 |
| ClCc1cccc(Cn2cnc3nc(Cl)nc(Cl)c32)c1 | 0.141 | 0.271 |

Test system: EKVX NSCLC
Experiment: DTP human tumour cell line panel, 48 h

| Structure (SMILES) | GI50 [µM] | TGI [µM] |
| --- | --- | --- |
| Cc1cc(C(C)(C)CC(C)(C)C)ccc1OCCOCC[N+](C)(C)Cc1ccccc1 | 1.55 | 4.07 |
| COc1ccc(-c2nn(-c3ccc(NC(=O)Nc4cc(C(F)(F)F)cc(C(F)(F)F)c4)cc3)cc2-c2ccncc2)cc1Cl | 3.22 | > 100 |
| O=C(CCC1OCCO1)Nc1cc(NCc2ccccc2)ccc1OCc1ccccc1 |  | 65.5 |
| ClCc1cccc(Cn2cnc3nc(Cl)nc(Cl)c32)c1 | 0.84 | 2.2 |

Test system: HCC-2998 colon
Experiment: DTP human tumour cell line panel, 48 h

| Structure (SMILES) | GI50 [µM] | TGI [µM] |
| --- | --- | --- |
| Cc1ncc(CCCN(C)C)cc1Nc1ncc2c(n1)-c1ccc(C(F)(F)F)cc1NC(=S)C2 | 0.0135 | 10.3 |
| COc1ccc(-c2nn(-c3ccc(NC(=O)Nc4cc(C(F)(F)F)cc(C(F)(F)F)c4)cc3)cc2-c2ccncc2)cc1Cl | 3.12 | 46.7 |
| O=C(CCC1OCCO1)Nc1cc(NCc2ccccc2)ccc1OCc1ccccc1 |  | > 100 |
| ClCc1cccc(Cn2cnc3nc(Cl)nc(Cl)c32)c1 | 1.52 | 2.9 |

Test system: HCT-116 colon
Experiment: DTP human tumour cell line panel, 48 h

| Structure (SMILES) | GI50 [µM] | TGI [µM] |
| --- | --- | --- |
| Cc1ncc(CCCN(C)C)cc1Nc1ncc2c(n1)-c1ccc(C(F)(F)F)cc1NC(=S)C2 | < 0.0176 | 14.4 |
| COc1ccc(-c2nn(-c3ccc(NC(=O)Nc4cc(C(F)(F)F)cc(C(F)(F)F)c4)cc3)cc2-c2ccncc2)cc1Cl | 1.53 | 3.52 |
| O=C(CCC1OCCO1)Nc1cc(NCc2ccccc2)ccc1OCc1ccccc1 |  | > 100 |
| ClCc1cccc(Cn2cnc3nc(Cl)nc(Cl)c32)c1 | 0.285 | 0.731 |

Test system: HCT-15 colon
Experiment: DTP human tumour cell line panel, 48 h

| Structure (SMILES) | GI50 [µM] | TGI [µM] |
| --- | --- | --- |
| Cc1cc(C(C)(C)CC(C)(C)C)ccc1OCCOCC[N+](C)(C)Cc1ccccc1 | 9.8 | 44 |
| Cc1ncc(CCCN(C)C)cc1Nc1ncc2c(n1)-c1ccc(C(F)(F)F)cc1NC(=S)C2 | 0.0389 | 15 |
| COc1ccc(-c2nn(-c3ccc(NC(=O)Nc4cc(C(F)(F)F)cc(C(F)(F)F)c4)cc3)cc2-c2ccncc2)cc1Cl | 2.88 | > 100 |
| O=C(CCC1OCCO1)Nc1cc(NCc2ccccc2)ccc1OCc1ccccc1 |  | > 100 |
| ClCc1cccc(Cn2cnc3nc(Cl)nc(Cl)c32)c1 | 0.955 | 2.13 |

Test system: HL-60(TB) leukemia
Experiment: DTP human tumour cell line panel, 48 h

| Structure (SMILES) | GI50 [µM] | TGI [µM] |
| --- | --- | --- |
| Cc1cc(C(C)(C)CC(C)(C)C)ccc1OCCOCC[N+](C)(C)Cc1ccccc1 | 0.436 | 1.62 |
| Cc1ncc(CCCN(C)C)cc1Nc1ncc2c(n1)-c1ccc(C(F)(F)F)cc1NC(=S)C2 | < 0.0148 | 0.872 |
| COc1ccc(-c2nn(-c3ccc(NC(=O)Nc4cc(C(F)(F)F)cc(C(F)(F)F)c4)cc3)cc2-c2ccncc2)cc1Cl | 2.5 | 6.58 |
| O=C(CCC1OCCO1)Nc1cc(NCc2ccccc2)ccc1OCc1ccccc1 |  | 97.3 |
